Earlier results, collected in patent publication US20140066449A1, “DIPYRIDINIUM DERIVATIVES” (SABREPHARM LIMITED, priority 2011, published 2014).

Assays:
[1] = system: rat; conditions: oral; cited from earlier work
[2] = system: dog; conditions: oral; cited from earlier work

| Structure (SMILES) | LD50 rat [1] [mg/kg] | LD50 dog [2] [mg/kg] |
| --- | --- | --- |
| COc1cccc2c1C(=O)c1c(O)c3c(c(O)c1C2=O)C[C@@](O)(C(=O)CO)C[C@@H]3O[C@H]1C[C@H](N)[C@H](O)[C@H](C)O1 [Doxorubicin] | 12.5 | 2.0 |
| CN(Cc1cnc2nc(N)nc(N)c2n1)c1ccc(C(=O)N[C@@H](CCC(=O)O)C(=O)O)cc1 [Methotrexate] | 180 to 320 | 120 |
